The values that follow come from article PMC10037499, “High-Throughput Screen Reveals the Structure–Activity Relationship of the Antimicrobial Lasso Peptide Ubonodin” (ACS Central Science, 2023).

Assay [1] deals with E. coli MC1061. The assay can be described thus: Spot dilution assay of E. coli producing the ubonodin variant from pUboABC. It is filed as cell-based. The settings on record: biological duplicates; for Inhibits Growth: variant in pUboABC backbone in E. coli MC1061, induction with 100 μM IPTG, ten-fold serial dilutions. Here is the method: Cultures of E. coli MC1061 transformed with the appropriate plasmids were grown. Aliquots of the cultures were sampled prior to and after induction with 100 μM IPTG, and 10-fold serial dilutions were plated. […]
All cloning was conducted by PCR amplification (using Q5 polymerase), restriction digestion, ligation, (using T4 DNA ligase), and transformation into chemically competent E. coli XL1-Blue. All cloning with a pUboABC backbone was done by plating transformation mixt ures onto Lysogeny Broth (LB) plates supplemented with 100 μg/mL ampicillin and 0.2% w/v glucose, and colonies were inoculated into LB media supplemented with 100 μ g/mL ampicillin and 0.2% w/v glucose to suppress any leaky expression. Cloning for all other plasmid constructs was done by plating transformation mixtures onto Lysogeny Broth (LB) plates supplemented with 100 μ g/ m L ampicillin, and colonies were inoculated into LB media supplemented with 100 μ g/ m L ampicillin.
Plasmids were extracted using Qiagen QIAprep Spin Miniprep Kit and sequence verified using Sanger sequencing. All primer sequences are listed in Table S7, and all plasmid constructs are […]
pUboABC was cloned by amplifying pWC99 with pQE-80 NheI For and pAT8 Nco I Rev.
The amplicon was ligated into pWC99 digested with Nhe I and Nco I. pUboBC was cloned by digesting pUboABC with Nh e I and Nco I and ligating that fragment into pQE-80 digested with Nhe I and Nco I. pUboABC S5H I16P and pUboABCD S5H I16P were cloned with overlap PCR using pWC99 as the template. One fragment was amplified with pQE-80 EcoRI For and S5H I16P Rev v2 and the second fragment was amplified with S5H I16P For v2 and pQE-80 HindII I Rev. […]
All remaining plasmid constructs were cloned with overlap PCR. One fragment was amplified with Xho I For Lib and a mutagenic reverse primer and the second fragment was amplified with NheI Rev Lib and a mutagenic forward primer. The templates and mutagenic […]
The fragments were joined with a second round of PCR and amplified with XhoI For Lib and NheI Rev Lib. Amplicons were ligated into the appropriate plasmid backbone digested with Xho I and Nhe I-HF. The plasmid backbones […]
The appropriate plasmid was transformed into electrocompetent E. coli MC1061, plated onto LB plates supplemented with 100 μ g/ m L ampicillin and 0.2% w/v glucose, and incubated at 30 °C for 16 hours. Colonies were inoculated into LB media supplemented with 100 μ g/ m L ampicillin and 0.2% w/v glucose and grown at 37 °C for 16 hours. These cultures were sub-cultured to an OD600 of 0.02 in 50 mL of LB media supplemented with 100 μg/mL ampicillin in a 250 mL flask. Once the OD600 reached 0.3, a 1 mL aliquot was sampled immediately prior to inducing the cultures with 100 μM isopropyl β-D-1-thiogalactopyranoside (IPTG). The aliquot was washed with Phosphate-Buffered Saline (PBS) two times and ten-fold serial dilutions were spotted onto LB plates supplemented with 100 μ g/ m L ampicillin and 0.2% w/v glucose. For each following timepoint, a 1 mL sample of each culture was withdrawn, washed with PBS two times, and ten- […]
fold serial dilutions were spotted onto LB plates supplemented with 100 μ g/m L ampicillin and 0.2% w/v glucose. Plates were incubated for 16 hours at 37 °C before imaging. […]
250 mL flask. Ten-fold serial dilutions of the culture were plated onto LB plates supplemented with 100 μ g/ m L ampicillin and 0.2% w/v glucose. The cultures were then grown at 37 °C, and once the OD600 reached 0.3, a 1 mL sample of the culture was withdrawn immediately before the cultures were induced with 10 μM or 100 μM IPTG and returned to grow longer. […]
All plates were incubated at 37 °C for 16 hours, after which the number of colonies was counted. Three biological replicates of this assay were done.
Co-Culture of E. coli MC1061 pUboABC and E. coli MC1061 pUboBC pUboABC (0.9 ng) and pUboBC (0.1 ng) were transformed into electrocompetent E. coli MC1061 with a one- hour outgrowth at 37 °C in LB media supplemented with 0.2% w/v glucose. […]

Assay [2] deals with B. cenocepacia AU0756. The procedure: We proceeded to test the antimicrobial activity of the selected variants against two clinical isolates of the Bcc, B. cenocepacia AU0756 and B. cenocepacia AU24362, in broth microdilution assays. […] We revisited these measurements using broth microdilution assays following the Clinical & Laboratory Standards Institute (CLSI) standard.
Broth microdilution assays of the ubonodin variants were conducted using B. cenocepacia AU0756 and B. cenocepacia AU24362 with guidelines provided by the Clinical & Laboratory Standards Institute (CLSI).

Assay [3] has as its system RNA polymerase (RNAP) in E. coli MC1061. The assay can be described thus: High-throughput growth-based screen with NGS (enrichment value) for RNA polymerase inhibition. The class given is cell-based. Further details: key to Experimental observation (enrichment observed in the screen): Dropout: Many variants inhibit RNAP so strongly that they cannot be detected by NGS after IPTG induction (referred to as dropout variants). The conditions noted are these: Table S4; variants whose MICs were tested. Here is the method:
The single mutant library was analyzed by NGS at multiple stages of sample preparation (Figure 2A) to track its evolution throughout the screen. Specifically, the frequency of each possible aa variant was computed at each stage by summing up counts for each distinct translated sequence and dividing by the total number of counts for all variants (eq S1, SI Methods). Since cells expressing an RNAP-inhibiting ubonodin variant will have growth defects relative to cells with a nontoxic variant, RNAP-inhibiting ubonodin variants are expected to decrease in frequency throughout the screen.
First, the naïve library (digested PCR products) was sequenced. These digested PCR products were cloned into the pUboABC backbone and transformed into a recA^– cloning strain. This plasmid library was sequenced again to capture any changes upon transformation of the library into E. coli. The change between the naïve library and the cloning transformation library was minimal (Figure S6A). This plasmid library was transformed into the screening strain MC1061, and the plasmid from resulting colonies was also sequenced. The library in MC1061 was grown up en masse in liquid culture to mid log phase, and a portion of the culture was plated. These colonies were scraped, then the plasmid was isolated and sequenced. Finally, the liquid culture was induced with IPTG, after which a portion of the culture was plated and the plasmid was isolated and sequenced. It is key to note that all samples from liquid cultures were plated prior to sequencing to ensure that only viable cells were sequenced. […] The rationale for sequencing at these five different stages was the possibility that leaky expression of uboA would affect the frequency of active mutants prior to IPTG induction. Indeed, we observed that the frequency of some uboA mutants dropped as soon as they were transformed into the screening strain MC1061 while the frequency of other mutants climbed (Figure 2B).
The behavior of the point variants (i.e., variants with a single aa substitution) was examined by calculating their enrichment values, the base-2 logarithm of the ratio of the variant’s frequency at a specific step of the screen to the variant’s frequency in the cloning transformation library (eq S3, Figure S6). The most relevant enrichment value for ubonodin activity is the comparison between the post-IPTG library and the cloning transformation library (Figure 2A). […] Many variants inhibit RNAP so strongly that they cannot be detected by NGS after IPTG induction (referred to as dropout variants). […] Variants with a stop codon mutation and variants containing an aa substitution at Tyr9 or Tyr27 (positions conserved in MccJ25 and shown to be crucial for RNAP inhibition, see Figure S7)[26] have positive enrichment values (1.2–1.7), serving as quality control for the screen (Figure 3A). Strikingly, 63% of point variants decreased in frequency, indicating a high tolerance to aa substitution. […] The positions with active variants are Asn11 through Ser24 in the loop and Asp3, Ser5, and Ala7 in the ring.
The single mutant and double mutant libraries were transformed into E. coli MC1061. Colonies were resuspended in media and subcultured into a larger culture. Aliquots of the cultures were sampled prior to and after induction with 10 μM IPTG and 100 μM IPTG and plated. After 16 h of incubation, the colonies were resuspended in media and plasmids were miniprepped.
Samples were PCR amplified with barcoded primers and combined such that double mutant library samples were over-represented compared to single mutant library samples to provide sufficient coverage of the larger double mutant library. Samples were sequenced using an Illumina MiSeq Micro 300nt and an Illumina NovaSeq 6000 Sequencing System. Downstream analysis of the data was conducted with Python, MATLAB, and R.
V to reduce genomic DNA contamination. One fragment was amplified with Xho I For Lib and a […]

Molecules are shown by their SMILES. Where a SMILES comes first, the peptide text is derived from it.

Turning to `CC[C@H](C)[C@@H]1NC(=O)[C@H](CO)NC(=O)CNC(=O)[C@H](CC(=O)O)NC(=O)CNC(=O)CNC(=O)CC[C@@H](C(=O)N[C@@H](Cc2ccc(O)cc2)C(=O)N[C@@H](Cc2ccccc2)C(=O)N[C@@H](CC(N)=O)C(=O)N[C@@H](CCCNC(=N)N)C(=O)N2CCC[C@H]2C(=O)N[C@@H](CCSC)C(=O)N[C@@H](Cc2c[nH]cn2)C(=O)N[C@@H](CCC(=O)O)C(=O)N[C@@H](Cc2c[nH]cn2)C(=O)N[C@@H](CC(=O)O)C(=O)N[C@@H](Cc2c[nH]c3ccccc23)C(=O)N[C@@H](CCC(N)=O)C(=O)N[C@H](C(=O)N[C@@H](CCSC)C(=O)N[C@@H](C)C(=O)N[C@@H](CO)C(=O)NCC(=O)N[C@@H](Cc2ccc(O)cc2)C(=O)N[C@@H](Cc2ccc(O)cc2)C(=O)NCC(=O)O)[C@@H](C)CC)NC(=O)[C@H](C)NC1=O` [I16E D23A] (HELM PEPTIDE1{G.G.D.G.S.I.A.E.Y.F.N.R.P.M.H.E.H.D.W.Q.I.M.A.S.G.Y.Y.G}$PEPTIDE1,PEPTIDE1,1:R1-8:R3$$$V2.0), the “Inhibits Growth” value in assay [1] is “Yes”. In addition, in assay [2], the “B. cenocepacia AU0756 MIC” value was 2 to 8 µM. In addition, the “Experimental observation (enrichment observed in the screen)” value (from here on “Experimental observation”) in assay [3] was “Dropout”.
Regarding `CC[C@H](C)[C@@H]1NC(=O)[C@H](CO)NC(=O)CNC(=O)[C@H](CC(=O)O)NC(=O)CNC(=O)CNC(=O)CC[C@@H](C(=O)N[C@@H](Cc2ccc(O)cc2)C(=O)N[C@@H](Cc2ccccc2)C(=O)N[C@@H](CCSC)C(=O)N[C@@H](CCCNC(=N)N)C(=O)N2CCC[C@H]2C(=O)N[C@@H](CCSC)C(=O)N[C@@H](Cc2c[nH]cn2)C(=O)N[C@H](C(=O)N[C@@H](Cc2c[nH]cn2)C(=O)N[C@@H](CC(=O)O)C(=O)N[C@@H](Cc2c[nH]c3ccccc23)C(=O)N[C@@H](CCC(N)=O)C(=O)N[C@H](C(=O)N[C@@H](CCSC)C(=O)N[C@@H](CC(=O)O)C(=O)N[C@@H](CO)C(=O)NCC(=O)N[C@@H](Cc2ccc(O)cc2)C(=O)N[C@@H](Cc2ccc(O)cc2)C(=O)NCC(=O)O)[C@@H](C)CC)[C@@H](C)CC)NC(=O)CNC1=O` [A7G N11M] (HELM PEPTIDE1{G.G.D.G.S.I.G.E.Y.F.M.R.P.M.H.I.H.D.W.Q.I.M.D.S.G.Y.Y.G}$PEPTIDE1,PEPTIDE1,1:R1-8:R3$$$V2.0), in assay [1] (pUboABC backbone), the “Time after induction at which the toxic effect was observed” value was determined as 6 h. Moreover, in assay [1], the “Inhibits Growth” value was “Yes”. The “B. cenocepacia AU0756 MIC” value in assay [2] is more than 8 µM. For the same compound, the “Experimental observation” value in assay [3] was “Dropout”.
For the compound `CC[C@H](C)[C@@H]1NC(=O)[C@H](CO)NC(=O)CNC(=O)[C@H](CC(=O)O)NC(=O)CNC(=O)CNC(=O)CC[C@@H](C(=O)N[C@@H](Cc2ccc(O)cc2)C(=O)N[C@@H](Cc2ccccc2)C(=O)N[C@@H](CC(N)=O)C(=O)N[C@@H](Cc2ccccc2)C(=O)N2CCC[C@H]2C(=O)N[C@@H](CCSC)C(=O)N[C@@H](Cc2c[nH]cn2)C(=O)N[C@H](C(=O)N[C@@H](Cc2c[nH]cn2)C(=O)N[C@@H](CC(=O)O)C(=O)NCC(=O)N[C@@H](CCC(N)=O)C(=O)N[C@H](C(=O)N[C@@H](CCSC)C(=O)N[C@@H](CC(=O)O)C(=O)N[C@@H](CO)C(=O)NCC(=O)N[C@@H](Cc2ccc(O)cc2)C(=O)N[C@@H](Cc2ccc(O)cc2)C(=O)NCC(=O)O)[C@@H](C)CC)[C@@H](C)CC)NC(=O)[C@H](C)NC1=O` [R12F W19G] (HELM PEPTIDE1{G.G.D.G.S.I.A.E.Y.F.N.F.P.M.H.I.H.D.G.Q.I.M.D.S.G.Y.Y.G}$PEPTIDE1,PEPTIDE1,1:R1-8:R3$$$V2.0), the “Inhibits Growth” value in assay [1] was “Yes”. In assay [2], the “B. cenocepacia AU0756 MIC” value was more than 8 µM. In addition, the “Experimental observation” value in assay [3] was “Dropout”.
